Patent EP0971917B1, “THIAZOLIDINEDIONE AND OXAZOLIDINEDIONE DERIVATIVES HAVING ANTIDIABETIC, HYPOLIPIDAEMIC AND ANTIHYPERTENSIVE PROPERTIES” (DR. REDDY'S RESEARCH FOUNDATION, priority 1997, dated 1998)

Tested on: C57BL/KsJ-db/db mice
Experiment: Blood sugar and triglycerides lowering activity in db/db mice (in vivo)
Settings: male C57BL/KsJ-db/db mice, 10 mg/kg/day, oral gavage daily for 6 days; for Maximum reduction in blood glucose level (%): plasma glucose, glucose oxidase method; for Triglyceride lowering (%): plasma triglycerides
Description: Mutation in colonies of laboratory animals and different sensitivities to dietary regimens have made the development of animal models with non-insulin dependent diabetes associated with obesity and insulin resistance possible. Genetic models such as db/db and ob/ob (See Diabetes, (1982) 31(1) : 1- 6) in mice and fa/fa and zucker rats have been developed by the various laboratories for understanding the pathophysiology of disease and testing the efficacy of new antidiabetic compounds (Diabetes, (1983) 32: 830-838; Annu. Rep. Sankyo Res. Lab. (1994) 46 : 1-57). The homozygous animals, C57 BL/KsJ-db/db mice developed by Jackson Laboratory, US, are obese, hyperglycemic, hyperinsulinemic and insulin resistant (J. Clin. Invest., (1990) 85 : 962-967), whereas heterozygous are lean and normoglycemic. In db/db model, mouse progressively develops insulinopenia with age, a feature commonly observed in late stages of human type II diabetes when blood sugar levels are insufficiently controlled. The state of pancreas and its course vary according to the models. Since this model resembles that of type II diabetes mellitus, the compounds of the present invention were tested for blood sugar and triglycerides lowering activities.
Male C57BL/KsJ-db/db mice of 8 to 14 weeks age, having body weight range of 35 to 60 grams, procured from the Jackson Laboraotory, USA, were used in the experiment The mice were provided with standard feed (National Institute of Nutrition, Hyderabad, India) and acidified water, ad libitum. The animals having more than 300 mg / dl blood sugar were used for testing. The number of animals in each group was 4.
The random blood sugar and triglyceride levels were measured by collecting blood (100 µl) through orbital sinus, using heparinised capillary in tubes containing EDTA which was centrifuged to obtain plasma. The plasma glucose and triglycerides levels were measured spectrometrically, by glucose oxidase and glycerol-3-PO4 oxidase/peroxidase enzyme (Dr. Reddy's Lab. Diagnostic Division Kits, Hyderabad, India) methods respectively. On 6th day the blood samples were collected one hour after administration of test compounds / vehicle for assessing the biological activity.
Test compounds were suspended on 0.25 % carboxymethyl cellulose and administered to test group at a dose of 10 mg to 100 mg / kg through oral gavage daily for 6 days. The control group received vehicle (dose 10 ml / kg).

Row | Compound | Maximum reduction in blood glucose level (%) | Triglyceride lowering (%)
1 | O=C1NC(=O)C(=Cc2ccc(OCCN3OCc4ccccc4C3=O)cc2)S1 [Example 11, 5-[4-[2-[4-Oxo-3,4-dihydro-1H-2,3-benzoxazin-3-yl]ethoxy]phenylmethylene]thiazolidin-2,4-dione] | 37 | 60
2 | Cc1nn(CCOc2ccc(CC3SC(=O)NC3=O)cc2)c(=O)c2ccccc12 (stereo not shown) [Example 6, 5-[4-[2-[4-Methyl-1-oxo-1,2-dihydro-phthalazin-2-yl]ethoxy]phenylmethyl] thiazolidin-2,4-dione] | 61 | 40
